Measurements: PubChem BioAssay AID330 (DTP/NCI, 2004)
Several values for one entry are separate records, joined by “and”; a condition that tells them apart may be missing. Equal entries are not always repeated. Toxic doses and inconclusive results are not listed. The calls were made as follows: active = survival T/C of 150% or more; inactive = T/C below 125% in these data.

System: P388 leukemia ip, CD2F1 mice, survival T/C
Experiment: NCI In Vivo Anticancer Drug Screen. Data for tumor model P388 Leukemia (intraperitoneal) in CD2F1 (CDF1) mice
Settings: endpoint: median survival time, higher = longer survival
Summary of the method: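 Mice carrying the transplanted tumor received test compound or vehicle. Survival was recorded in each group, and the value is the treated-group measurement divided by that of the vehicle-treated control group.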

[1] = dose: 100.0 mg/kg/injection, schedule: Q01DX001 (ip), vehicle: Klucel (hydroxypropylcellulose) (HPC)
[2] = dose: 60.0 mg/kg/injection, schedule: Q01DX005 (ip), vehicle: saline with Tween-80
[3] = dose: 120.0 mg/kg/injection, schedule: Q01DX005 (ip), vehicle: saline with Tween-80
[4] = dose: 240.0 mg/kg/injection, schedule: Q01DX005 (ip), vehicle: saline with Tween-80
[5] = dose: 50.0 mg/kg/injection, schedule: Q01DX009 (ip), vehicle: Klucel (hydroxypropylcellulose) (HPC)
[6] = dose: 100.0 mg/kg/injection, schedule: Q01DX009 (ip), vehicle: Klucel (hydroxypropylcellulose) (HPC)
[7] = dose: 100.0 mg/kg/injection, schedule: Q04DX002 (ip), vehicle: saline

Measured: T/C

CCC[CH2][Sn]1([CH2]CCC)[O]C2C(CO)OC(n3ccc(N)nc3=O)C2[O]1 (stereo not drawn)
inactive: dose: 0.3 mg/kg/injection, schedule: Q03HX015 (ip), vehicle: Klucel (hydroxypropylcellulose) (HPC) 106 % of control | dose: 0.44 mg/kg/injection, schedule: Q03HX015 (ip), vehicle: Klucel (hydroxypropylcellulose) (HPC) 117 % of control | dose: 0.67 mg/kg/injection, schedule: Q03HX015 (ip), vehicle: Klucel (hydroxypropylcellulose) (HPC) 119 % of control and 121 % of control | dose: 0.9 mg/kg/injection, schedule: Q01DX005 (ip), vehicle: Klucel (hydroxypropylcellulose) (HPC) 109 % of control | dose: 1.0 mg/kg/injection, schedule: Q03HX015 (ip), vehicle: Klucel (hydroxypropylcellulose) (HPC) 123 % of control | dose: 1.5 mg/kg/injection, schedule: Q03HX015 (ip), vehicle: Klucel (hydroxypropylcellulose) (HPC) 120 % of control and 124 % of control | dose: 1.56 mg/kg/injection, schedule: Q01DX009 (ip), vehicle: other 102 % of control and 86 % of control | dose: 2.0 mg/kg/injection, schedule: Q01DX005 (ip), vehicle: Klucel (hydroxypropylcellulose) (HPC) 121 % of control | dose: 3.0 mg/kg/injection, schedule: Q01DX005 (ip), vehicle: Klucel (hydroxypropylcellulose) (HPC) 122 % of control | dose: 3.12 mg/kg/injection, schedule: Q01DX009 (ip), vehicle: other 97 % of control

CCN(CC)CCCC(C)Nc1nncc2cc(Cl)ccc12 (stereo not drawn)
inactive: dose: 50.0 mg/kg/injection, schedule: Q01DX005 (ip), vehicle: saline 95 % of control | dose: 100.0 mg/kg/injection, schedule: Q01DX005 (ip), vehicle: saline 97 % of control

c1ccc2c(c1)OCCN1CCNC21 (stereo not drawn)
inactive: dose: 100.0 mg/kg/injection, schedule: Q04DX003 (ip), vehicle: saline 100 % of control | dose: 200.0 mg/kg/injection, schedule: Q04DX003 (ip), vehicle: saline 102 % of control | dose: 400.0 mg/kg/injection, schedule: Q04DX003 (ip), vehicle: saline 101 % of control

CCCCCCCCCCCCCCCCCCOS(=O)(=O)O (tested in a mixture with another compound)
inactive: dose: 50.0 mg/kg/injection, schedule: Q01DX009 (ip), vehicle: saline 102 % of control | dose: 100.0 mg/kg/injection, schedule: Q01DX009 (ip), vehicle: saline 104 % of control | dose: 200.0 mg/kg/injection, schedule: Q01DX009 (ip), vehicle: saline 104 % of control

CC(C)(C)P(c1ccccc1)C(C)(C)C
inactive: dose: 100.0 mg/kg/injection, schedule: Q04DX002 (ip), vehicle: saline with Tween-80 103 % of control

O=Cc1c(-c2ccc(-c3ccccc3)cc2)nc2sccn12
inactive: [1] 86 % of control | dose: 200.0 mg/kg/injection, schedule: Q01DX001 (ip), vehicle: Klucel (hydroxypropylcellulose) (HPC) 89 % of control | dose: 400.0 mg/kg/injection, schedule: Q01DX001 (ip), vehicle: Klucel (hydroxypropylcellulose) (HPC) 89 % of control

COc1ccc(NS(=O)(=O)c2ccc(F)cc2)cc1
inactive: [2] 99 % of control | [3] 106 % of control | [4] 106 % of control

N#CCCCN1C(=O)c2ccccc2C1=O
inactive: [5] 102 % of control | [6] 104 % of control

CCOC(=O)C1C(=O)C(CN(CCCl)CCCl)C(=O)C(C(=O)OCC)C1c1ccc(O)cc1 (stereo not drawn)
inactive: dose: 4.6 micrograms/kg/injection, schedule: Q01DX009 (ip), vehicle: Klucel (hydroxypropylcellulose) (HPC) 104 % of control | dose: 9.0 micrograms/kg/injection, schedule: Q01DX009 (ip), vehicle: Klucel (hydroxypropylcellulose) (HPC) 109 % of control | dose: 18.7 micrograms/kg/injection, schedule: Q01DX009 (ip), vehicle: Klucel (hydroxypropylcellulose) (HPC) 109 % of control | dose: 37.5 micrograms/kg/injection, schedule: Q01DX009 (ip), vehicle: Klucel (hydroxypropylcellulose) (HPC) 116 % of control

Nc1cc(Cl)c(Cl)cc1Cl
inactive: dose: 12.5 mg/kg/injection, schedule: Q01DX009 (ip), vehicle: saline with Tween-80 100 % of control | dose: 25.0 mg/kg/injection, schedule: Q01DX009 (ip), vehicle: saline with Tween-80 95 % of control | dose: 50.0 mg/kg/injection, schedule: Q01DX009 (ip), vehicle: saline with Tween-80 90 % of control

O=C1C=CC(=O)N1c1ccc(-c2nc3ccccc3o2)cc1
inactive: dose: 6.25 mg/kg/injection, schedule: Q01DX005 (ip), vehicle: saline with Tween-80 109 % of control | dose: 12.5 mg/kg/injection, schedule: Q01DX005 (ip), vehicle: saline with Tween-80 109 % of control | dose: 25.0 mg/kg/injection, schedule: Q01DX005 (ip), vehicle: saline with Tween-80 109 % of control and 111 % of control | dose: 50.0 mg/kg/injection, schedule: Q01DX005 (ip), vehicle: saline with Tween-80 111 % of control

O=C(O)c1ccccc1Nc1c(C(=O)O)cnc2cc3c(cc12)OCO3
inactive: dose: 60.0 mg/kg/injection, schedule: Q01DX005 (ip), vehicle: Klucel (hydroxypropylcellulose) (HPC) 101 % of control | dose: 120.0 mg/kg/injection, schedule: Q01DX005 (ip), vehicle: Klucel (hydroxypropylcellulose) (HPC) 99 % of control | dose: 240.0 mg/kg/injection, schedule: Q01DX005 (ip), vehicle: Klucel (hydroxypropylcellulose) (HPC) 88 % of control

Cc1ccc(COc2ccc(Cl)cc2Cn2ccnc2)cc1
inactive: dose: 25.0 mg/kg/injection, schedule: Q04DX002 (ip), vehicle: saline 104 % of control | dose: 50.0 mg/kg/injection, schedule: Q04DX002 (ip), vehicle: saline 106 % of control | [7] 106 % of control and 116 % of control

CC12CCC3c4ccc(O)cc4CCC3C1C/C(=C\C(=O)O)C2=O (stereo not drawn)
inactive: dose: 3.13 mg/kg/injection, schedule: Q01DX009 (ip), vehicle: Klucel (hydroxypropylcellulose) (HPC) 104 % of control | dose: 6.25 mg/kg/injection, schedule: Q01DX009 (ip), vehicle: Klucel (hydroxypropylcellulose) (HPC) 111 % of control | dose: 12.5 mg/kg/injection, schedule: Q01DX009 (ip), vehicle: Klucel (hydroxypropylcellulose) (HPC) 108 % of control | dose: 25.0 mg/kg/injection, schedule: Q01DX009 (ip), vehicle: Klucel (hydroxypropylcellulose) (HPC) 111 % of control

CC(C)c1ccc(OC(=O)Nc2c(Cl)cccc2Cl)cc1
inactive: [2] 108 % of control | [3] 120 % of control | [4] 115 % of control

CC1CC2=C(C1)C(C1(C)C(=O)CC3C(C1=O)C3(C)C)C(C)C2=O (stereo not drawn)
inactive: dose: 12.5 mg/kg/injection, schedule: Q01DX001 (ip), vehicle: Klucel (hydroxypropylcellulose) (HPC) 100 % of control | dose: 25.0 mg/kg/injection, schedule: Q01DX001 (ip), vehicle: Klucel (hydroxypropylcellulose) (HPC) 96 % of control | dose: 50.0 mg/kg/injection, schedule: Q01DX001 (ip), vehicle: Klucel (hydroxypropylcellulose) (HPC) 102 % of control | [1] 96 % of control

CC1(C)N=C(N)N=C(N)N1c1cccc(CCCCc2ccc(Cl)c(S(=O)(=O)F)c2)c1
inactive: dose: 9.33 mg/kg/injection, schedule: Q01DX009 (ip), vehicle: saline 118 % of control

CCOC(=O)c1ccc(N/N=C\C(C)=N/NC(=S)NC)cc1
inactive: dose: 100.0 mg/kg/injection, schedule: Q01DX001 (ip), vehicle: saline 108 % of control | dose: 200.0 mg/kg/injection, schedule: Q01DX001 (ip), vehicle: saline 108 % of control | dose: 400.0 mg/kg/injection, schedule: Q01DX001 (ip), vehicle: saline 100 % of control

O=C(O)CCCC#C/C=C/CCCC/C=C(Br)\C=C/Br
inactive: dose: 62.5 mg/kg/injection, schedule: Q01DX009 (ip), vehicle: olive oil, sesame oil, peanut oil 106 % of control | dose: 125.0 mg/kg/injection, schedule: Q01DX009 (ip), vehicle: olive oil, sesame oil, peanut oil 96 % of control | dose: 250.0 mg/kg/injection, schedule: Q01DX009 (ip), vehicle: olive oil, sesame oil, peanut oil 100 % of control

OCC(O)C(O)C(O)C(/C=N\Nc1ccccc1)=N/Nc1ccccc1 (stereo not drawn)
inactive: [7] 100 % of control | dose: 200.0 mg/kg/injection, schedule: Q04DX002 (ip), vehicle: saline 97 % of control | dose: 400.0 mg/kg/injection, schedule: Q04DX002 (ip), vehicle: saline 102 % of control

CCCCCCCSc1nc2ccc(N=Cc3ccccc3O)cc2s1
inactive: [5] 93 % of control | [6] 103 % of control | dose: 200.0 mg/kg/injection, schedule: Q01DX009 (ip), vehicle: Klucel (hydroxypropylcellulose) (HPC) 103 % of control

O=C(O)C(Cc1ccccc1)N1C(=O)C=CC1=O (stereo not drawn)
inactive: dose: 10.0 mg/kg/injection, schedule: Q01DX009 (ip), vehicle: saline with Tween-80 112 % of control | dose: 20.0 mg/kg/injection, schedule: Q01DX009 (ip), vehicle: saline with Tween-80 107 % of control | dose: 40.0 mg/kg/injection, schedule: Q01DX009 (ip), vehicle: saline with Tween-80 104 % of control and 95 % of control | [5] 89 % of control | [6] 90 % of control
